For test [1], the system named is T-Rex 293 cell line SC3 cells having increased expression of androgen receptor protein due to exposure to doxycycline. As to the kind of experiment: Cellular growth inhibition assay, T-Rex 293 SC3 cells with doxycycline (CellTiter-Glo, 72 hours). Particulars: T-Rex 293 SC3 cells with increased androgen receptor expression due to doxycycline (10 ng/mL). The format is cell-based. How it is done: (§1) The following types of cells were prepared for this experiment: (i) a T-Rex 293 cell line having increased expression of androgen receptor protein due to exposure to doxycycline and (ii) a T-Rex 293 cell line lacking increased expression of androgen receptor protein. Ability of the test compounds to inhibit proliferation of the foregoing cell types was evaluated according to the procedures set forth below.
(§2) The doxycycline-inducible androgen receptor protein expressing cell line was established using the following protocol: T-Rex 293 cells were purchased from Invitrogen (Cat #R71007) and transfected using Lipofectamine 2000 with the wild-type androgen receptor protein sequence cloned into the pcDNA4/TO vector. Transfected cells were selected using 400 μg/mL Zeocin (Invitrogen Cat #R25001). Following selection, single clones were raised and maintained in Dulbecco's Modified Eagle Medium (DMEM) supplemented with 10% w/w Tetracycline-free fetal bovine serum (FBS) and 250 μg/mL Zeocin. Clones were analyzed for expression of androgen receptor protein in the presence and absence of 10 ng/mL doxycycline (Sigma Cat #D9891), and a single doxycycline-inducible clone (hereinafter “SC3”) was selected for use in downstream assays.
(§3) The SC3 cells were seeded on poly-D-lysine coated, black clear-bottom 384-well plates at 2500/well, in 25 μL Phenol Red Free Dulbecco's Modified Eagle Medium (DMEM) supplemented with 10% w/w charcoal-dextran treated fetal bovine serum (FBS) and 1% w/w pen-strep, with or without 10 ng/mL doxycycline. Pen-Strep is a commercially available mixture of penicillin G and streptomycin, which is used in mammalian cell culture media to prevent bacterial contamination. Phenol Red Free Dulbecco's Modified Eagle Medium (DMEM) supplemented with 10% w/w charcoal-dextran treated fetal bovine serum (FBS) and 1% w/w pen-strep, with or without 10 ng/mL doxycycline is herein referred to as Treatment Medium. Following seeding of cells in the plates, the plates were spun at 300×g for 30 seconds, then equilibrated to room temperature for 30 minutes, and then deposited in a humidified tissue culture incubator maintained at 37° C. with 5% CO2.
(§4) At 24 hours after seeding of the cells, dilutions of test compound were prepared in DMSO and dissolved in Treatment Medium, to achieve a final DMSO concentration of 0.5% w/w, thereby providing the Test Compound Solution. A 25 μL aliquot of the Test Compound Solution was added to cells in the well plates. An equal volume of a solution containing DMSO and Treatment Medium was used as a negative control. Following treatment of cells with Test Compound Solution or said equal volume of a solution containing DMSO and Treatment Medium, the plates were spun at 300×g for 30 seconds, and then left in an incubator for 72 hours.
(§5) At the end of the treatment duration, cell viability was quantified with CellTiter-Glo 2.0 reagent (Promega Cat #G9243). For this purpose, plates were equilibrated to room temperature for 30 minutes, and then 25 μL of CellTiter-Glo 2.0 reagent was added to cells in the plate wells. Plates were then agitated on a shaker for two minutes at 500 rpm and subsequently incubated at room temperature for 10 minutes. Following incubation, the plates were spun at 3000×g for 30 seconds, then sealed with an optical adhesive cover, and luminescence readings were measured with an EnVision Plate Reader.
(§6) Data was normalized using zero luminescence for baseline. A four-parameter non-linear regression curve fit was applied to dose-response data in GraphPad Prism data analysis software to determine the half-maximal growth inhibitory concentration (GI50) for each test compound.
For orientation: In ATP-based viability assays light output follows the ATP content of the culture.

Test [2] concerns T-Rex 293 cell line SC3 cells lacking increased expression of androgen receptor protein. Description: Cellular growth inhibition assay, T-Rex 293 SC3 cells without doxycycline (CellTiter-Glo, 72 hours). Particulars: T-Rex 293 cell line SC3 cells not exposed to doxycycline (lacking increased androgen receptor expression). The format is cell-based. As for the experimental part:
as §1, §2, §3, §4, §5, §6

In general, GI50 refers to the concentration giving 50% growth inhibition.

SMILES strings stand for the structures.

For the compound `Cc1sc2c(c1C)C(c1ccc(N3CCCC(CNc4ncc(C(=O)NC5CCC(Oc6ccc(C#N)c(Cl)c6)CC5)cn4)C3)cc1)=NC(Cc1ncco1)c1nnc(C)n1-2` (mixture of isomers) [I-810], the values for the GI50 in test [1] and in test [2] were under 500 nM and 500 to 1500 nM, respectively.

As for `Cc1sc2c(c1C)C(c1ccc(NCC3CN(c4ncc(C(=O)NC5CCC(Oc6ccc(C#N)c(Cl)c6)CC5)cn4)CCO3)cc1)=NC(Cc1ncco1)c1nnc(C)n1-2` (mixture of isomers) [I-814], the GI50 in test [1] and in test [2] was under 500 nM each time.

On to `Cc1sc2c(c1C)C(c1ccc(N3CC4CC3CN4c3ncc(C(=O)NC4CCC(Oc5ccc(C#N)c(Cl)c5)CC4)cn3)cc1)=NC(Cc1ncco1)c1nnc(C)n1-2` (mixture of isomers) [I-815], for which the GI50 in test [1] and in test [2] was under 500 nM throughout.

Consider `Cc1sc2c(c1C)C(c1ccc(N3CCC4(CC3)CCN(c3ncc(C(=O)N[C@H]5CC[C@H](Oc6ccc(C#N)c(Cl)c6)CC5)cn3)C4)cc1)=NC(Cc1ncco1)c1nnc(C)n1-2` (mixture of isomers) [I-779], for which the GI50 in test [1] and in test [2] was under 500 nM each time.

In the case of `Cc1sc2c(c1C)C(c1ccc(N3CCN(C4CCN(c5ncc(C(=O)N[C@H]6CC[C@H](Oc7ccc(C#N)c(Cl)c7)CC6)cn5)C4)CC3)cc1)=NC(Cc1ncco1)c1nnc(C)n1-2` (mixture of isomers) [I-783], the GI50 in test [1] and in test [2] was under 500 nM each time.

Take `Cc1sc2c(c1C)C(c1ccc(C#CC3CC4(CCCN(c5ccc(C(=O)N[C@H]6CC[C@H](Oc7ccc(C#N)c(Cl)c7)CC6)nn5)C4)C3)cc1)=NC1(CC1)c1nnc(C)n1-2` (stereo partly drawn) [I-472]: the results for the GI50 in test [1] (72 h) and in test [2] were under 500 nM and over 3000 nM, respectively.

`Cc1sc2c(c1C)C(c1ccc(N3CCC4(CCN(c5ccc(C(=O)N[C@H]6CC[C@H](Oc7ccc(C#N)c(Cl)c7)CC6)nn5)C4)C3)cc1)=N[C@@H](C)c1nnc(C)n1-2` (stereo partly drawn) [I-535] registered a GI50 in test [1] (72 h) of under 500 nM.

Compound `COC[C@@H]1N=C(c2ccc(C3CCC4(CC3)CCN(c3ccc(C(=O)N[C@H]5CC[C@H](Oc6ccc(C#N)c(Cl)c6)CC5)nn3)C4)cc2)c2c(sc(C)c2C)-n2c(C)nnc21` (stereo partly drawn) [I-602] registered a GI50 in test [2] (72 h) of under 500 nM.

Regarding `Cc1sc2c(c1C)C(c1ccc(CC3CC(OC4CCN(c5ccc(C(=O)NC6CCC(Oc7ccc(C#N)c(Cl)c7)CC6)nn5)CC4)C3)cc1)=NC(C)c1nnc(C)n1-2` (stereo not drawn) [I-603], the GI50 in test [1] (72 h) and in test [2] (72 h) was under 500 nM each time.

The compound `COC[C@@H]1N=C(c2ccc(OC3CC4(CCCN(c5ccc(C(=O)N[C@H]6CC[C@H](Oc7ccc(C#N)c(Cl)c7)CC6)nn5)C4)C3)cc2)c2c(sc(C)c2C)-n2c(C)nnc21` (stereo partly drawn) [I-661] came in with a GI50 in test [1] (72 h) of under 500 nM.

In turn, `Cc1sc2c(c1C)C(c1ccc(N3C[C@@H]4CN(c5ccc(C(=O)N[C@H]6CC[C@H](Oc7ccc(C#N)c(Cl)c7)CC6)nn5)C[C@H]4C3)cc1)=N[C@@H](C)c1nnc(C)n1-2` [I-705] yielded a GI50 in test [2] (72 h) of under 500 nM.

For `Cc1sc2c(c1C)C(c1ccc(N[C@H]3CCN(c4ncc(C(=O)N[C@H]5CC[C@H](Oc6ccc(C#N)c(Cl)c6)CC5)cn4)C3)cc1)=NC(Cc1ncco1)c1nnc(C)n1-2` (stereo partly drawn) [I-773], the GI50 in test [1] (72 h) and in test [2] (72 h) was 500 to 1500 nM in each case.

Turning to `Cc1sc2c(c1C)C(c1ccc(NCCN3CCN(c4ncc(C(=O)N[C@H]5CC[C@H](Oc6ccc(C#N)c(Cl)c6)CC5)cn4)CC3)cc1)=NC(Cc1ncco1)c1nnc(C)n1-2` (stereo partly drawn) [I-774], the 50% growth inhibitory concentration (GI50) in test [1] (72 h) and in test [2] (72 h) was under 500 nM throughout.

Take `Cc1sc2c(c1C)C(c1ccc(N[C@H]3CC[C@@H](Nc4ncc(C(=O)N[C@H]5CC[C@H](Oc6ccc(C#N)c(Cl)c6)CC5)cn4)CC3)cc1)=NC(Cc1ncco1)c1nnc(C)n1-2` (stereo partly drawn) [I-775]: the GI50 in test [1] (72 h) was under 500 nM; in test [2] (72 h), over 3000 nM.

As to `Cc1sc2c(c1C)C(c1ccc(N3CC[C@H](Nc4ncc(C(=O)N[C@H]5CC[C@H](Oc6ccc(C#N)c(Cl)c6)CC5)cn4)C3)cc1)=NC(Cc1ncco1)c1nnc(C)n1-2` (stereo partly drawn) [I-776], the GI50 in test [1] (72 h) and in test [2] (72 h) was under 500 nM each time.

Consider `Cc1sc2c(c1C)C(c1ccc(N3CC4(CCN(c5ncc(C(=O)N[C@H]6CC[C@H](Oc7ccc(C#N)c(Cl)c7)CC6)cn5)CC4)C3)cc1)=NC(Cc1ncco1)c1nnc(C)n1-2` (stereo partly drawn) [I-777], for which the GI50 in test [1] (72 h) and in test [2] (72 h) was under 500 nM in each case.

On to `Cc1sc2c(c1C)C(c1ccc(N3CCC(C)(Nc4ncc(C(=O)N[C@H]5CC[C@H](Oc6ccc(C#N)c(Cl)c6)CC5)cn4)CC3)cc1)=NC(Cc1ncco1)c1nnc(C)n1-2` (stereo partly drawn) [I-778], for which the GI50 in test [1] (72 h) and in test [2] (72 h) was under 500 nM in each case.

Take `Cc1sc2c(c1C)C(c1ccc(N3CC(N4CCN(c5ncc(C(=O)N[C@H]6CC[C@H](Oc7ccc(C#N)c(Cl)c7)CC6)cn5)CC4)C3)cc1)=NC(Cc1ncco1)c1nnc(C)n1-2` (stereo partly drawn) [I-780]: the GI50 in test [1] (72 h) and in test [2] (72 h) was under 500 nM each time.

Turning to `Cc1sc2c(c1C)C(c1ccc(N[C@H]3CCN(c4ncc(C(=O)N[C@H]5CC[C@H](Oc6ccc(C#N)c(Cl)c6)CC5)cn4)C[C@@H]3F)cc1)=NC(Cc1ncco1)c1nnc(C)n1-2` (stereo partly drawn) [I-781], the GI50 in test [1] (72 h) and in test [2] (72 h) was under 500 nM each time.

`Cc1sc2c(c1C)C(c1ccc(N3[C@@H]4CC[C@H]3C[C@@H](Nc3ncc(C(=O)N[C@H]5CC[C@H](Oc6ccc(C#N)c(Cl)c6)CC5)cn3)C4)cc1)=NC(Cc1ncco1)c1nnc(C)n1-2` (stereo partly drawn) [I-782]: the GI50 is under 500 nM in test [1] and over 3000 nM in test [2].

`Cc1sc2c(c1C)C(c1ccc(NCC3CCCN(c4ncc(C(=O)N[C@H]5CC[C@H](Oc6ccc(C#N)c(Cl)c6)CC5)cn4)C3)cc1)=NC(Cc1ncco1)c1nnc(C)n1-2` (stereo partly drawn) [I-809]: the GI50 in test [1] (72 h) was under 500 nM; in test [2] (72 h), over 3000 nM.

Turning to `Cc1sc2c(c1C)C(c1ccc(NCCC3CCN(c4ncc(C(=O)N[C@H]5CC[C@H](Oc6ccc(C#N)c(Cl)c6)CC5)cn4)CC3)cc1)=NC(Cc1ncco1)c1nnc(C)n1-2` (stereo partly drawn) [I-811], the GI50 in test [1] (72 h) and in test [2] (72 h) was under 500 nM each time.

Consider `Cc1sc2c(c1C)C(c1ccc(N3CCCC4(CCN(c5ncc(C(=O)N[C@H]6CC[C@H](Oc7ccc(C#N)c(Cl)c7)CC6)cn5)CC4)C3)cc1)=NC(Cc1ncco1)c1nnc(C)n1-2` (stereo partly drawn) [I-812], for which the GI50 in test [1] (72 h) is under 500 nM; in test [2] (72 h), over 3000 nM.

Turning to `Cc1sc2c(c1C)C(c1ccc(N3C[C@H](F)C[C@@H](Nc4ncc(C(=O)N[C@H]5CC[C@H](Oc6ccc(C#N)c(Cl)c6)CC5)cn4)C3)cc1)=NC(Cc1ncco1)c1nnc(C)n1-2` (stereo partly drawn) [I-813], the GI50 in test [1] (72 h) and in test [2] (72 h) was under 500 nM throughout.

With `Cc1sc2c(c1C)C(c1ccc(N3CCCN(CCCNc4ncc(C(=O)N[C@H]5CC[C@H](Oc6ccc(C#N)c(Cl)c6)CC5)cn4)CC3)cc1)=NC(Cc1ncco1)c1nnc(C)n1-2` (stereo partly drawn) [I-816], the GI50 was under 500 nM in test [1] (72 h) and over 3000 nM in test [2] (72 h).

With `Cc1sc2c(c1C)C(c1ccc(N3CCC(C)(CNc4ncc(C(=O)N[C@H]5CC[C@H](Oc6ccc(C#N)c(Cl)c6)CC5)cn4)CC3)cc1)=NC(Cc1ncco1)c1nnc(C)n1-2` (stereo partly drawn) [I-817], the GI50 in test [1] (72 h) and in test [2] (72 h) was under 500 nM in each case.

Turning to `Cc1sc2c(c1C)C(c1ccc(N3CCC4(CC3)CC(Nc3ncc(C(=O)N[C@H]5CC[C@H](Oc6ccc(C#N)c(Cl)c6)CC5)cn3)C4)cc1)=NC(Cc1ncco1)c1nnc(C)n1-2` (stereo partly drawn) [I-818], the GI50 in test [1] (72 h) and in test [2] (72 h) was under 500 nM each time.

Turning to `Cc1sc2c(c1C)C(c1ccc(N3CCO[C@@H](CNc4ncc(C(=O)N[C@H]5CC[C@H](Oc6ccc(C#N)c(Cl)c6)CC5)cn4)C3)cc1)=NC(Cc1ncco1)c1nnc(C)n1-2` (stereo partly drawn) [I-819], the GI50 in test [1] (72 h) and in test [2] (72 h) was under 500 nM throughout.

Consider `Cc1sc2c(c1C)C(c1ccc(N3CCN(c4ncc(C(=O)N[C@H]5CC[C@H](Oc6ccc(C#N)c(Cl)c6)CC5)cn4)CC(F)(F)C3)cc1)=NC(Cc1ncco1)c1nnc(C)n1-2` (stereo partly drawn) [I-820], for which the GI50 in test [1] (72 h) and in test [2] (72 h) was under 500 nM in each case.

These data come from patent US20260109707A1, “HETEROBIFUNCTIONAL COMPOUNDS AND METHODS OF TREATING DISEASE” (Halda Therapeutics OpCo. Inc., priority 2022, published 2026).
